Read-outs that look alike come from different tables or passages of the source.
Key:
[1] = tested on: activation of MAPK within vascular endothelial cells induced by VEGF stimulation; assay: Inhibitory activity against activation of MAPK within vascular endothelial cells induced by VEGF stimulation; assay type: cell-based; settings: human funicular venous vascular endothelial cells, VEGF 50 ng/ml, phosphorylated MAPK by immunoblotting
Protocol: Measurement of Inhibitory Activity Against Activation of MAPK Within Vascular Endothelial Cells Induced by VEGF Stimulation
Human funicular venous vascular endothelial cells (purchased from Chronetics) were cultured in an EGM-2 medium (purchased from Chronetics) within an incubator containing 5% carbon dioxide until 50 to 70% confluent, and the culture was inoculated into wells, containing the same medium, in a 96-well flat-bottom plate in an amount of 1.5×10^5 per well. After cultivation at 37° C. overnight, the medium was replaced by an EBM-2 medium containing 0.5% fetal calf serum (purchased from Chronetics), followed by cultivation for 24 hr. A solution of the test compound in dimethyl sulfoxide was added to each well, and the cultivation was continued at 37° C. for additional one hr. A human recombinant vascular endothelial growth factor (hereinafter abbreviated to “VEGF”) was added to a final concentration of 50 ng/ml, and the stimulation of cells was carried out at 37° C. for 8 min. The medium was removed, the cells were washed with phosphate buffered saline (pH 7.4), and 10 μl of a solubilization buffer (Tris buffered saline (pH 7.4) containing 1% Triton X100, 2 mM sodium orthovanadylate, and 1 mM disodium ethylenediaminetetraacetate) was then added thereto. The mixture was shaken at 4° C. for one hr to solubilize the cells. An equal amount of Tris buffered saline containing 1% sodium laurylsulfate was added to and thoroughly mixed with the solution. This solution (2 μl) was adsorbed on a PVDF filter by dot blotting, and this filter was subjected to immunoblotting with anti-tyrosine phosphorylated MAPK antibody (purchased from Daiichi Pure Chemicals).
The level of phosphorylated MAPK was quantitatively determined with a densitometer, and the percentage phosphorylated MAPK in the presence of the test compound was determined by presuming the level of phosphorylated MAPK with the addition of VEGF in the absence of the test compound to be 100% and the level of phosphorylated MAPK in the absence of the test compound and VEGF to be 0%. The test compound concentration (IC50) necessary for inhibiting 50% of the activation of MAPK was calculated based on the percentage of phosphorylated MAPK.

Human glioma cells GL07 = assay: Antitumor effect on human glioma cells (GL07) transplanted into nude mice; assay type: in vivo; settings: 20 mg/kg once a day for 9 days; for inhibition in vivo at 20 mg/kg: Mus musculus, Glioma cell, 216 h, read-out: TGIR, % (tumor growth inhibition rate)
Method in brief: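 GL07 xenografts in nude mice, grouped (n=4) at ~100 mm^3 tumor volume. Test compound 20 mg/kg p.o. or i.p. once daily for 9 days; vehicle controls. TGIR = (1−Tx/Cx)×100 from tumor volumes normalized to day-of-start volume = 1.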

human KDR = molecular target: T1, human KDR (Homo sapiens, UniProt P35968); assay: Inhibitory activity against KDR phosphorylation by ELISA; assay type: cell-based; settings: NIH 3T3 cells transfected with human KDR, VEGF 100 ng/ml
T1 construct: expressed in transfected cells; host or cells: NIH 3T3 cells (Sawano A et al., Cell Growth & Differentiation 7, 213-221 (1996))
T1 sequence (P35968 20-1356): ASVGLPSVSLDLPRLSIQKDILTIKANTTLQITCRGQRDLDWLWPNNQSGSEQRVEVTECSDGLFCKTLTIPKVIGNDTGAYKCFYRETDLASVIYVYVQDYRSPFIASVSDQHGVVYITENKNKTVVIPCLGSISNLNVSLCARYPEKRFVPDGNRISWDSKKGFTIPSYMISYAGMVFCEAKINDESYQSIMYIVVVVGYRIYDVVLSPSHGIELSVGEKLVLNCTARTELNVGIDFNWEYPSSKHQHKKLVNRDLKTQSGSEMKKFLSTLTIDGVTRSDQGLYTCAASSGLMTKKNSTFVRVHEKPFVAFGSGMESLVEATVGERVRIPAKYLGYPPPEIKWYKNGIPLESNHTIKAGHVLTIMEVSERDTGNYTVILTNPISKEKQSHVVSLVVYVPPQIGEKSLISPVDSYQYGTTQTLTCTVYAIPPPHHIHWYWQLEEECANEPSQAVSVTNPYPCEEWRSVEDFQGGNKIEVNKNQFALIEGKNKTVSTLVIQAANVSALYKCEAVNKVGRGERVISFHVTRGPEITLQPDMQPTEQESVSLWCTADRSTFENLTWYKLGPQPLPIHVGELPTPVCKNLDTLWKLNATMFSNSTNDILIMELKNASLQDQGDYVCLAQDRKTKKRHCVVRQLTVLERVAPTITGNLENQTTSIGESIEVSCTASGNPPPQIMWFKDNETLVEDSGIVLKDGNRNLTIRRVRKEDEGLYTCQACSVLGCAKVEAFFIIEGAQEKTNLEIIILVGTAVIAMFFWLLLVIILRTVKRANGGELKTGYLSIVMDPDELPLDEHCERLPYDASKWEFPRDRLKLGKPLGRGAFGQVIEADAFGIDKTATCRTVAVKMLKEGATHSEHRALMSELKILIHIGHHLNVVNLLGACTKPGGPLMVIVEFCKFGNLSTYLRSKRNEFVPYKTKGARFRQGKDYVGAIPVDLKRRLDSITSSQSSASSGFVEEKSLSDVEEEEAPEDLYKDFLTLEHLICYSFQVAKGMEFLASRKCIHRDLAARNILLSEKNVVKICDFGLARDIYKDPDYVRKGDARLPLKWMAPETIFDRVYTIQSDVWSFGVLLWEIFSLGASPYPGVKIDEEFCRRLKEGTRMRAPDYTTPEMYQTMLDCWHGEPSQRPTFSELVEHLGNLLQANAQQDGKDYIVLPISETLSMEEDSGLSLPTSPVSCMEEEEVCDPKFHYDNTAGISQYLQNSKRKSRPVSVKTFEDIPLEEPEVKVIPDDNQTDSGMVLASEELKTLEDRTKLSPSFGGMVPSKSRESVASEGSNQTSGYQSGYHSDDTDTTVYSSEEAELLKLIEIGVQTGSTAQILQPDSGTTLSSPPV

| SMILES | IC50 ([1]; Endothelial cell) [nM] | IC50 (human KDR) [nM] | inhibition in vivo at 20 mg/kg (Human glioma cells GL07; GL07, oral) [%] | other results |
| --- | --- | --- | --- | --- |
| COc1cc2c(Oc3ccc(NC(=O)Nc4ccc(F)cc4F)c(F)c3)ccnc2cc1OCCN1CCOCC1 [Example 50, N-(2,4-Difluorophenyl)-N′-(2-fluoro-4-{[6-methoxy-7-(2-morpholinoethoxy)-4-quinolyl]oxy}phenyl)-urea] | 0.5 |  | 59 |  |
| COc1cc2nccc(Oc3ccc(NC(=O)NCC(C)C)c(F)c3)c2cc1OC [Example 11, N-{4-[(6,7-Dimethoxy-4-quinolyl)oxy]-2-fluorophenyl}-N′-isobutylurea] | 15 |  |  |  |
| C#CCNC(=O)Nc1ccc(Oc2ncnc3cc(OC)c(OC)cc23)cc1F [Example 92, N-{4-[(6,7-Dimethoxy-4-quinazolinyl)oxy]-2-fluorophenyl}-N′-(2-propynyl)urea] | 46 | 63 |  |  |
| CCC(C)NC(=O)Nc1ccc(Oc2ncnc3cc(OC)c(OC)cc23)cc1F (stereo not shown) [Example 90, N-(sec-Butyl)-N′-{4-[(6,7-dimethoxy-4-quinazolinyl)oxy]-2-fluorophenyl}urea] | 42 | 57 |  |  |
| CCCCNC(=O)Nc1ccc(Oc2ccnc3cc(OC)c(OC)cc23)cc1F [Example 9, N-Butyl N′-{4-[(6,7-dimethoxy-4-quinolyl)oxy]-2-fluorophenyl}urea] | 5.1 |  |  | inhibition in vivo at 20 mg/kg (Human glioma cells GL07; ip, GL07, intraperitoneal): 59% |
| COc1cc2nccc(Oc3ccc(NC(=O)NCc4ccc(F)cc4F)c(F)c3)c2cc1OC [Example 1, N-(2,4-Difluorobenzyl)-N′-{4-[(6,7-dimethoxy-4-quinolyl)oxy]-2-fluorophenyl}urea] | 1.8 |  |  |  |
| COc1cc2nccc(Oc3ccc(NC(=O)Nc4cccc5ccccc45)c(Cl)c3)c2cc1OC [Example 23, N-{2-Chloro-4-[(6,7-dimethoxy-4-guinolyl)oxy]phenyl}-N′-(1-naphthyl)urea] |  |  |  | IC50 [1]: 5.4 nM |
| CCCNC(=O)Nc1ccc(Oc2ccnc3cc(OC)c(OC)cc23)cc1F [Example 5, N-{4-[(6,7-Dimethoxy-4-guinolyl)oxy]-2-fluorophenyl}-N′-propylurea] |  |  |  | TGIR, % (tumor growth inhibition rate) (Human glioma cells GL07; GL07, oral): 59%; IC50 [1]: 2.9 nM |
| COCCOc1cc2nccc(Oc3ccc(NC(=O)Nc4ccccc4OC)c(C)c3C)c2cc1OC [Example 57, N-(4-{[6-Methoxy-7-(2-methoxyethoxy)-4-quinolyl]oxy}-2,3-dimethylphenyl)-N′-(2-methoxyphenyl)urea] | 6.5 |  |  |  |
| C#CCNC(=O)Nc1ccc(Oc2ccnc3cc(OC)c(OC)cc23)cc1F [Example 7, N-{4-[(6,7-Dimethoxy-4-quinolyl)oxy]-2-fluorophenyl}-N′-(2-propynyl)urea] | 5.2 |  |  |  |
| CCNC(=O)Nc1ccc(Oc2ccnc3cc(OC)c(OC)cc23)cc1F [Example 8, N-{4-[(6,7-Dimethoxy-4-guinolyl)oxy]-2-fluorophenyl}-N′-ethylurea] |  |  |  | IC50 [1]: 11 nM |
| CCCNC(=O)Nc1ccc(Oc2ccnc3cc(OCCCO)c(OC)cc23)cc1Cl [Example 147, N-(2-Chloro-4-{[7-(3-hydroxypropoxy)-6-methoxy-4-guinolyl]oxy}phenyl)-N′-propylurea] |  | 1 | 34 |  |
| CCCNC(=O)Nc1ccc(Oc2ncnc3cc(OCCCN4CCCCC4)c(OC)cc23)cc1Cl [Example 135, N-(2-chloro-4-{[6-methoxy-7-(3-piperidinopropoxy)-4-quinazolinyl]oxy}phenyl)-N′-propylurea] |  | 1 | 62 |  |
| CCCNC(=O)Nc1ccc(Oc2ccnc3cc(OCc4ccccn4)c(OC)cc23)cc1Cl [Example 141, N-(2-Chloro-4-{[6-methoxy-7-(2-pyridylmethoxy)-4-quinolyl]oxy}phenyl)-N′-propylurea] |  | 14 | 28 |  |
| CCCNC(=O)Nc1ccc(Oc2ncnc3cc(OC)c(OCc4ccccn4)cc23)cc1Cl [Example 138, N-(2-Chloro-4-{[7-methoxy-6-(2-pyridylmethoxy)-4-quinazolinyl]oxy}phenyl)-N′-propylurea] |  | 40 | 21 |  |
| CCCNC(=O)Nc1ccc(Oc2ncnc3cc(OC)c(OCCCN(C)CCO)cc23)cc1Cl [Example 140] |  | 36 | 21 |  |
| COc1cc2c(Oc3ccc(NC(=O)N(C)C)c(Cl)c3)ncnc2cc1OCCCCN1CCOCC1 [Example 179, N′-(2-Chloro-4-{[6-methoxy-7-(4-morpholinobutoxy)-4-quinazolinyl]oxy}phenyl)-N,N-dimethylurea] |  | > 1000 | 33 |  |
| COCCOc1cc2nccc(Oc3ccc(NC(=O)Nc4ccc(F)cc4F)c(C)c3C)c2cc1OC [Example 56, N-(2,4-Difluorophenyl)-N′-(4-{[6-methoxy-7-(2-methoxyethoxy)-4-quinolyl]oxy}-2,3-dimethylphenyl)-urea] | 5.1 |  |  |  |
| CCN(CC)C(=O)Nc1ccc(Oc2ncnc3cc(OCc4ccncc4)c(OC)cc23)cc1Cl [Example 126, N′-(2-Chloro-4-{[6-methoxy-7-(4-pyridylmethoxy)-4-quinazolinyl]oxy}phenyl)-N,N-diethyl-urea] |  | > 1000 | 52 |  |
| CCCNC(=O)Nc1ccc(Oc2ncnc3cc(OC)c(OCCCN4CCN(C)CC4)cc23)cc1Cl [Example 137, N-[2-Chloro-4-({7-methoxy-6-[3-(4-methylpiperazino)propoxy]-4-quinazolinyl}oxy)phenyl]-N′-propylurea] |  | 24 | 20 |  |

The next lines start with results.

| IC50 ([1]; Endothelial cell) [nM] | IC50 (human KDR) [nM] | SMILES | inhibition in vivo at 20 mg/kg (Human glioma cells GL07; GL07, oral) [%] | other results |
| --- | --- | --- | --- | --- |
| 7.8 |  | CCC(C)NC(=O)Nc1ccc(Oc2ccnc3cc(OC)c(OC)cc23)cc1F (stereo not shown) [Example 10, N-(sec-Butyl)-N′-{4-[(6,7-dimethoxy-4-quinolyl)oxy]-2-fluorophenyl}urea] |  |  |
| < 1 | 0.4 | COc1ccccc1NC(=O)Nc1ccc(Oc2ncnc3cc(OC)c(OC)cc23)cc1F [Example 96, N-{4-[(6,7-Dimethoxy-4-quinazolinyl)oxy]-2-fluorophenyl}-N′-(2-methoxyphenyl)urea] |  |  |
| 2.1 |  | C=CCNC(=O)Nc1ccc(Oc2ccnc3cc(OC)c(OC)cc23)cc1F [Example 4, N-Allyl-N′-{4-[(6,7-dimethoxy-4-quinolyl)-oxy]-2-fluorophenyl}urea] | 61 |  |
| < 1 | 1.5 | COc1ccccc1NC(=O)Nc1ccc(Oc2ncnc3cc(OC)c(OC)cc23)cc1C [Example 106, N-{4-[(6,7-Dimethoxy-4-quinazolinyl)oxy]-2-methylphenyl}-N′-(2-methoxyphenyl)urea] |  |  |
| 0.5 |  | COCCOc1cc2nccc(Oc3ccc(NC(=O)Nc4ccc(F)cc4F)c(Cl)c3)c2cc1OC [Example 54, N-(2-Chloro-4-{[6-methoxy-7-(2-methoxyethoxy)-4-quinolyl]oxy}phenyl)-N′-(2,4-difluorophenyl)urea] | 59 |  |
| 0.6 |  | COc1cc2nccc(Oc3ccc(NC(=O)Nc4ccccc4C)c(Cl)c3)c2cc1OC [Example 19, N-{2-Chloro-4-[(6,7-dimethoxy-4-quinolyl)oxy]phenyl}-N′-(2-methylphenyl)urea] |  |  |
|  | 1.5 | CCCNC(=O)Nc1ccc(Oc2ccnc3cc(OCCCn4ccnc4)c(OC)cc23)cc1Cl [Example 154, N-[2-Chloro-4-({7-[3-(1H-1-imidazolyl)-propoxy]-6-methoxy-4-guinolyl}oxy)phenyl]-N′-propylurea] | 34 |  |
|  | 2.2 | COc1cc2c(Oc3ccc(NC(=O)Nc4ccc(F)cc4F)c(Cl)c3)ccnc2cc1OCCN1CCN(C)CC1 [Example 166, N-[2-Chloro-4-({6-methoxy-7-[2-(4-methylpiperazino)ethoxy]-4-guinolyl}oxy)phenyl]-N′-(2,4-difluorophenyl)urea] | 27 |  |
|  | 0.8 | CCCNC(=O)Nc1ccc(Oc2ccnc3cc(OCCn4ccnn4)c(OC)cc23)cc1Cl [Example 145, N-[2-chloro-4-(6-methoxy-7-{[2-(1H-1,2,3-triazol-1-yl)ethoxy]-4-quinolyl}oxy)phenyl]-N′-propylurea] | 57 |  |
